For 67 molecules, Efficacy and logP results are on record in US9375004B2 (Bayer Intellectual Property GmbH, priority 2010, dated 2016).

A word on the logP: it is a log measure of how a compound divides between an organic and an aqueous phase. The low end stands for lower lipophilicity, the high end for higher lipophilicity.

In data set [1] the test system is Fusarium nivale (var. majus). In words: Fusarium nivale (var. majus)-test (wheat)/preventive. The settings on record: 500 ppm, preventive, evaluated 5 days after inoculation.
Data set [2] in a line: logP by HPLC on reversed-phase column (EEC Directive 79/831 Annex V.A8). The settings on record: EEC Directive 79/831 Annex V.A8.
Setting [3] is: HPLC on reversed-phase column (C 18).
Setting [4] is: HPLC on a reversed-phase column (C 18).

For `Cn1cc(C(=O)Nc2ccccc2C2CC2C2CC2)c(C(F)F)n1` (centres unmarked) [2.34 from WO-2003/074491, N-{2-[1,1′-bi(cyclopropyl)-2-yl]phenyl}-3-(difluoromethyl)-1-methyl-1H-pyrazole-4-carboxamide, reference compound], the Efficacy in data set [1] is on record as 57%; in data set [1] (listed as 2.34) it was “less than 60%”.

Consider `Cn1nc(C(F)F)c(C(=O)Nc2ccc3c(c2)OC(F)(F)C(F)(F)O3)c1F` [compound 199], for which the logP in data set [2] (setting [3]) is 3.58.

Consider `Cn1nc(C(F)F)c(C(=O)Nc2ccc3c(c2)OC(F)(F)C(F)(F)O3)c1Cl` [compound 200], for which the lipophilicity (logP) in data set [2] (setting [3]) worked out at 3.76.

Take `Cc1ccccc1-c1cccc(NC(=O)c2c(C(F)F)nn(C)c2F)c1` [compound 201]: the logP in data set [2] (setting [3]) turned out to be 3.63.

In turn, `Cc1ccccc1-c1cccc(NC(=O)c2c(C(F)F)nn(C)c2Cl)c1` [compound 202] gave a logP in data set [2] (setting [3]) of 3.83.

Turning to `Cn1nc(C(F)F)c(C(=O)Nc2cccc(-c3ccc(F)cc3)c2)c1F` [compound 203], the lipophilicity (logP) in data set [2] (setting [3]) was determined as 3.39.

Take `Cn1nc(C(F)F)c(C(=O)Nc2cccc(-c3ccc(F)cc3)c2)c1Cl` [compound 204]: in data set [2] (setting [3]), the lipophilicity (logP) worked out at 3.59.

Take `Cc1cc(C)cc(-c2cccc(NC(=O)c3c(C(F)F)nn(C)c3F)c2)c1` [compound 205]: the logP in data set [2] (setting [3]) is listed as 4.11.

`Cc1cc(C)cc(-c2cccc(NC(=O)c3c(C(F)F)nn(C)c3Cl)c2)c1` [compound 206] came in with a log partition coefficient (logP) in data set [2] (setting [3]) of 4.34.

In the case of `Cn1nc(C(F)F)c(C(=O)Nc2cccc(-c3ccc(Cl)cc3)c2)c1F` [compound 207], the logP in data set [2] (setting [3]) is given as 3.83.

In turn, `Cn1nc(C(F)F)c(C(=O)Nc2cccc(-c3cc(F)cc(F)c3)c2)c1F` [compound 209] gave a lipophilicity (logP) in data set [2] (setting [3]) of 3.62.

In data set [2] (setting [3]), `Cn1nc(C(F)F)c(C(=O)Nc2cccc(-c3cc(F)cc(F)c3)c2)c1Cl` [compound 210] returned a log partition coefficient (logP) of 3.83.

`Cc1cc(C)c(-c2cccc(NC(=O)c3c(C(F)F)nn(C)c3F)c2)c(C)c1` [compound 211] yielded a logP in data set [2] (setting [3]) of 4.34.

With `CC(C)c1cccc(-c2cccc(NC(=O)c3c(C(F)F)nn(C)c3Cl)c2)c1` [compound 213], in data set [2] (setting [3]), the logP turned out to be 4.61.

Molecule `CC(C)c1cccc(-c2cccc(NC(=O)c3c(C(F)F)nn(C)c3F)c2)c1` [compound 214] gave a logP in data set [2] (setting [3]) of 4.41.

The molecule `CC(C)c1ccc(-c2cccc(NC(=O)c3c(C(F)F)nn(C)c3F)c2)cc1` [compound 215] registered a log partition coefficient (logP) in data set [2] (setting [3]) of 4.46.

`CC(C)c1ccc(-c2cccc(NC(=O)c3c(C(F)F)nn(C)c3Cl)c2)cc1` [compound 216] came in with a logP in data set [2] (setting [3]) of 4.68.

`Cn1nc(C(F)F)c(C(=O)Nc2cccc(-c3ccc(F)c(Cl)c3)c2)c1F` [compound 217]: in data set [2] (setting [3]), the log partition coefficient (logP) was found to be 3.89.

As for `Cn1nc(C(F)F)c(C(=O)Nc2cccc(-c3ccc(F)c(Cl)c3)c2)c1Cl` [compound 218], the lipophilicity (logP) in data set [2] (setting [3]) came to 4.11.

In turn, `Cn1nc(C(F)F)c(C(=O)Nc2cccc(-c3ccc(C(C)(C)C)cc3)c2)c1F` [compound 219] returned a logP in data set [2] (setting [3]) of 4.73.

For `Cn1nc(C(F)F)c(C(=O)Nc2cccc(-c3ccc(C(C)(C)C)cc3)c2)c1Cl` [compound 220], the logP in data set [2] (setting [3]) turned out to be 4.93.

Consider `CC(C)Oc1cccc(-c2cccc(NC(=O)c3c(C(F)F)nn(C)c3F)c2)c1` [compound 221], for which the logP in data set [2] (setting [3]) came to 3.99.

`CC(C)Oc1cccc(-c2cccc(NC(=O)c3c(C(F)F)nn(C)c3Cl)c2)c1` [compound 222]: in data set [2] (setting [3]), the log partition coefficient (logP) amounted to 4.21.

In turn, `CC(C)Oc1ccc(-c2cccc(NC(=O)c3c(C(F)F)nn(C)c3F)c2)cc1` [compound 223] returned a logP in data set [2] (setting [3]) of 3.96.

Molecule `CC(C)Oc1ccc(-c2cccc(NC(=O)c3c(C(F)F)nn(C)c3Cl)c2)cc1` [compound 224] displayed a logP in data set [2] (setting [3]) of 4.19.

`Cn1nc(C(F)F)c(C(=O)Nc2cccc(-c3ccc(C(F)(F)F)cc3)c2)c1F` [compound 225] came in with a lipophilicity (logP) in data set [2] (setting [3]) of 3.99.

As to `Cn1nc(C(F)F)c(C(=O)Nc2cccc(-c3ccc(C(F)(F)F)cc3)c2)c1Cl` [compound 226], the lipophilicity (logP) in data set [2] (setting [3]) stood at 4.19.

For `Cn1nc(C(F)F)c(C(=O)Nc2cccc(-c3cccc(Cl)c3Cl)c2)c1F` [compound 227], the lipophilicity (logP) in data set [2] (setting [3]) was 3.99.

For the molecule `Cn1nc(C(F)F)c(C(=O)Nc2cccc(-c3cccc(Cl)c3Cl)c2)c1Cl` [compound 228], the logP in data set [2] (setting [3]) worked out at 4.21.

`Cn1nc(C(F)F)c(C(=O)Nc2cccc(-c3ccc(Cl)cc3Cl)c2)c1F` [compound 229] yielded a logP in data set [2] (setting [3]) of 4.21.

`Cn1nc(C(F)F)c(C(=O)Nc2cccc(-c3ccc(Cl)cc3Cl)c2)c1Cl` [compound 230] showed a logP in data set [2] (setting [3]) of 4.39.

In the case of `Cn1nc(C(F)F)c(C(=O)Nc2cccc(-c3cc(Cl)cc(Cl)c3)c2)c1F` [compound 231], the logP in data set [2] (setting [3]) amounted to 4.39.

In the case of `Cn1nc(C(F)F)c(C(=O)Nc2cccc(-c3cc(Cl)cc(Cl)c3)c2)c1Cl` [compound 232], the logP in data set [2] (setting [3]) worked out at 4.73.

Molecule `CO/N=C(\C)c1ccc(-c2cccc(NC(=O)c3c(C(F)F)nn(C)c3F)c2)cc1` [compound 233] yielded a logP in data set [2] (setting [3]) of 3.89.

For the molecule `CO/N=C(\C)c1ccc(-c2cccc(NC(=O)c3c(C(F)F)nn(C)c3Cl)c2)cc1` [compound 234], in data set [2] (setting [3]), the lipophilicity (logP) is listed as 4.11.

As for `CC(C)COc1ccc(-c2cccc(NC(=O)c3c(C(F)F)nn(C)c3F)c2)cc1` [compound 235], the logP in data set [2] (setting [3]) turned out to be 4.61.

`CC(C)COc1ccc(-c2cccc(NC(=O)c3c(C(F)F)nn(C)c3Cl)c2)cc1` [compound 236] returned a log partition coefficient (logP) in data set [2] (setting [3]) of 4.83.

For `Cn1nc(C(F)F)c(C(=O)Nc2cccc(-c3cccc([Si](C)(C)C)c3)c2)c1F` [compound 237], the lipophilicity (logP) in data set [2] (setting [3]) is 4.96.

`Cn1nc(C(F)F)c(C(=O)Nc2cccc(-c3cccc([Si](C)(C)C)c3)c2)c1Cl` [compound 238]: the lipophilicity (logP) in data set [2] (setting [3]) turned out to be 5.17.

In turn, `Cn1nc(C(F)F)c(C(=O)Nc2cccc(-c3ccc([Si](C)(C)C)cc3)c2)c1F` [compound 239] displayed a logP in data set [2] (setting [3]) of 5.03.

In data set [2] (setting [3]), `Cn1nc(C(F)F)c(C(=O)Nc2cccc(-c3ccc([Si](C)(C)C)cc3)c2)c1Cl` [compound 240] gave a lipophilicity (logP) of 5.25.

In data set [2] (setting [3]), `Cn1nc(C(F)F)c(C(=O)Nc2cccc(-c3cccc(OC(F)(F)F)c3)c2)c1Cl` [compound 241] displayed a log partition coefficient (logP) of 4.31.

In data set [2] (setting [3]), `Cn1nc(C(F)F)c(C(=O)Nc2cccc(-c3cccc(OC(F)(F)F)c3)c2)c1F` [compound 242] returned a lipophilicity (logP) of 4.11.

In data set [2] (setting [3]), `Cn1nc(C(F)F)c(C(=O)Nc2cccc(-c3ccc(OC(F)(F)F)cc3)c2)c1F` [compound 243] gave a logP of 4.14.

Take `Cn1nc(C(F)F)c(C(=O)Nc2cccc(-c3ccc(OC(F)(F)F)cc3)c2)c1Cl` [compound 244]: in data set [2] (setting [4]), the logP is on record as 4.34.

In data set [2] (setting [4]), `CC(C)O/N=C/c1ccc(-c2cccc(NC(=O)c3c(C(F)F)nn(C)c3F)c2)cc1` [compound 245] returned a logP of 4.46. This logP and that of the molecule before are within 0.2 log units of each other.

`CC(C)O/N=C/c1ccc(-c2cccc(NC(=O)c3c(C(F)F)nn(C)c3Cl)c2)cc1` [compound 246] registered a logP in data set [2] (setting [4]) of 4.66.

In data set [2] (setting [4]), `C/C(=N\OC(C)(C)C)c1ccc(-c2cccc(NC(=O)c3c(C(F)F)nn(C)c3F)c2)cc1` [compound 247] displayed a logP of 5.28.

Molecule `C/C(=N\OC(C)(C)C)c1ccc(-c2cccc(NC(=O)c3c(C(F)F)nn(C)c3Cl)c2)cc1` [compound 248] came in with a logP in data set [2] (setting [4]) of 5.51.

Consider `Cn1nc(C(F)F)c(C(=O)Nc2cccc(C#Cc3ccccc3)c2)c1F` [compound 249], for which, in data set [2] (setting [4]), the logP turned out to be 3.83.

As to `Cn1nc(C(F)F)c(C(=O)Nc2cccc(Oc3ccccc3)c2)c1F` [compound 250], in data set [2] (setting [4]), the lipophilicity (logP) is 3.35.

`Cn1nc(C(F)F)c(C(=O)Nc2cccc(Oc3ccccc3)c2)c1Cl` [compound 251] gave a lipophilicity (logP) in data set [2] (setting [4]) of 3.56.

Take `Cn1nc(C(F)F)c(C(=O)Nc2cccc(OCc3ccccc3)c2)c1F` [compound 252]: in data set [2] (setting [4]), the lipophilicity (logP) was determined as 3.35.

`Cn1nc(C(F)F)c(C(=O)Nc2cccc(OCc3ccccc3)c2)c1Cl` [compound 253] showed a logP in data set [2] (setting [4]) of 3.55.

Take `Cn1nc(C(F)F)c(C(=O)Nc2cccc(Sc3ccccc3)c2)c1Cl` [compound 256]: the logP in data set [2] (setting [4]) amounted to 3.85.

Molecule `Cn1nc(C(F)F)c(C(=O)Nc2cccc(Sc3ccccc3)c2)c1F` [compound 257] came in with a logP in data set [2] (setting [4]) of 3.65.

In data set [2] (setting [4]), `Cn1nc(C(F)F)c(C(=O)Nc2cccc(Sc3ccc(C(C)(C)C)cc3)c2)c1F` [compound 258] yielded a logP of 4.98.

In turn, `Cn1nc(C(F)F)c(C(=O)Nc2cccc(Sc3ccc(C(C)(C)C)cc3)c2)c1Cl` [compound 259] registered a lipophilicity (logP) in data set [2] (setting [4]) of 5.17. This logP and that of the molecule before are within 0.2 log units of each other.

The molecule `Cn1nc(C(F)F)c(C(=O)Nc2ccc(OC(F)(F)F)cc2Br)c1F` [compound 260] returned a logP in data set [2] (setting [4]) of 3.76.

`Cn1nc(C(F)F)c(C(=O)Nc2ccc(Cl)cc2)c1F` [compound 261] gave a logP in data set [2] (setting [4]) of 2.70.

On to `Cn1nc(C(F)F)c(C(=O)Nc2ccc(C3CCCCC3)cc2)c1F` [compound 262], for which, in data set [2] (setting [4]), the log partition coefficient (logP) is given as 4.21.

In data set [2] (setting [4]), `Cn1nc(C(F)F)c(C(=O)Nc2ccc(C3CCCCC3)cc2)c1Cl` [compound 263] showed a logP of 4.44.

In data set [2] (setting [4]), `Cn1nc(C(F)F)c(C(=O)Nc2ccc(-c3ccccc3)cc2)c1F` [compound 264] returned a logP of 3.33.

On to `Cn1nc(C(F)F)c(C(=O)Nc2ccc(-c3ccccc3)cc2)c1Cl` [compound 265], for which the logP in data set [2] (setting [4]) worked out at 3.50.

Turning to `Cn1nc(C(F)F)c(C(=O)Nc2ccc(-c3cc(Cl)cc(Cl)c3)cc2)c1F` [compound 266], the log partition coefficient (logP) in data set [2] (setting [4]) is reported as 4.51.

In data set [2] (setting [4]), `Cn1nc(C(F)F)c(C(=O)Nc2ccc(-c3cc(Cl)cc(Cl)c3)cc2)c1Cl` [compound 267] came in with a logP of 4.72.

On to `Cn1nc(C(F)F)c(C(=O)Nc2ccc(Oc3ccccc3)cc2)c1F` [compound 268], for which the log partition coefficient (logP) in data set [2] (setting [4]) was found to be 3.29.
